Measured values as given in publication PMC12449377, “Psychedelic-like effects induced by 2,5-dimethoxy-4-iodoamphetamine, lysergic acid diethylamide, and psilocybin in male and female C57BL/6J mice” (Psychopharmacology, 2025).
Like-named read-outs stand apart in the source and are kept apart here.

Legend:
[1] = biological target: T1, 5-HT2A (Mus musculus, UniProt P35363); assay: Competition binding vs [3H]M100907 in mouse brain membranes
T1 construct: tissue BioIVT; host or cells: whole C57BL/6 mouse brain minus cerebellum, male and female
Method: Competition binding studies were conducted in mouse brain tissue as previously described (Glatfelter et al. [2022b]). Briefly, the experiments utilized membranes prepared from whole C57BL/6 mouse brain minus cerebellum (BioIVT, Westbury, NY, USA). […] We assessed the ability of test drugs to compete for [^3H]M100907 binding at 5-HT2A (1 nM) or [^3H]8-OH-DPAT binding at 5-HT1A (0.5 nM). Radioligands were purchased commercially (PerkinElmer, Boston, MA, USA). Nonspecific binding was determined using 10 µM ketanserin for 5-HT2A and serotonin for 5-HT1A. All data represent 3 experiments performed in triplicate.
(§1) Concentration-response data were fit to a single site non-linear regression model. For the HTR studies, potencies were determined from the ascending limb of the dose-response curves using ED50 potency values from [agonist] vs. response (variable slope, four parameter) least squares fit non-linear regression analyses, whereas efficacy was defined by the top output parameter or Emax from the aforementioned analyses. […] Best-fit values for ED50 and Emax from non-linear regression analyses were compared by extra sum-of-squares F tests. Mean effects for each behavioral endpoint were compared using two-way ANOVA (dose x sex), followed by Sidak’s multiple comparisons post-hoc test. Mean effects for pooled mouse behavioral data were compared via Welch’s ANOVA with Dunnett’s T3 post-hoc test, comparing all doses to saline vehicle controls (0 mg/kg). Alpha was set to 0.05 for all analyses.

[2] = tested on: C57BL/6J mice; assay: Head twitch response (HTR) in mice; assay type: in vivo, mouse; conditions: for HTR (total events) Mean: 30 min; for ED50: Mus musculus, sc
Method: Each drug was tested using groups of 12 mice per sex (i.e., 24 total mice per drug). Experimental sessions were conducted once every 1–2 weeks for 2 months per drug. Experimental sessions were spaced apart by at least 1 week to minimize the potential for tolerance to drug effects (Canal and Morgan [2012]; Darmani et al. [1990a]; de la Fuente Revenga et al. [2022]). Experiments were conducted during the light phase (1300–1700 local time; lights on = 0700 in a 12/12 light/dark cycle).
(§2) At 1–2 weeks prior to the beginning of experiments, mice were habituated to handling and receiving s.c. saline injections. On the day of an experiment, mice were acclimated to the testing room in their home cage for at least 30 min prior to the start of sessions. Prior to each session, mice were weighed, and resting body temperatures were recorded. Mice were then placed into experimental chambers for acclimation. Behavioral testing was carried out in TruScan mouse locomotor arenas equipped with photobeam arrays (Coulbourn Instruments, Holliston, MA, USA) that were modified with cylindrical inserts and transparent flooring to aid in semi-automated HTR detection as previously described (Glatfelter et al. [2022a]). After 5 min of acclimation, basal body temperature was recorded followed by s.c. injection of drug or vehicle, and mice were returned to test chambers for 30 min. Dose ranges for each drug were 0.03–10 mg/kg for DOI, 0.03–10 mg/kg for psilocybin, and 0.003–1 mg/kg for LSD. Mice were randomly assigned to specific doses at the beginning of the experiment and received different doses at each session.
(§3) During each session, locomotor activity was quantified via photobeam tracking of distance traveled in cm. Overhead GoPro Hero Black 7 video recordings (120 fps, 960p resolution) were analyzed using a commercially available software package from Clever Sys Inc. (Reston, VA, USA) for the measurement of HTR activity. Mouse body temperature was also collected post-session to calculate temperature change values (basal - post session temperature reading).
as §1

[3] = tested on: C57BL/6J mice; assay: Locomotor activity (distance traveled) in mice; assay type: in vivo, mouse; conditions: for Locomotor Activity (cm) Mean: 30 min
Method: as §2, §3, §1

[4] = tested on: C57BL/6J mice; assay: Body temperature change in mice; assay type: in vivo, mouse; conditions: for Body Temp Δ (°C) Mean: post 30 min session
Method: All mice were injected s.c. with temperature transponders (14 × 2 mm, model IPTT-300, Avidity Science, Waterford Wisconsin, USA) under brief isoflurane immobilization, and were given at least 1 week to recover (Glatfelter et al. [2022b]). Mice were single housed post-implant, and for the duration of the experiments, to protect their devices from being removed by cage mates. Temperature was measured noninvasively using a handheld reader which is sensitive to the transponder signals.
as §2, §3, §1

T1 sequence (P35363 whole entry): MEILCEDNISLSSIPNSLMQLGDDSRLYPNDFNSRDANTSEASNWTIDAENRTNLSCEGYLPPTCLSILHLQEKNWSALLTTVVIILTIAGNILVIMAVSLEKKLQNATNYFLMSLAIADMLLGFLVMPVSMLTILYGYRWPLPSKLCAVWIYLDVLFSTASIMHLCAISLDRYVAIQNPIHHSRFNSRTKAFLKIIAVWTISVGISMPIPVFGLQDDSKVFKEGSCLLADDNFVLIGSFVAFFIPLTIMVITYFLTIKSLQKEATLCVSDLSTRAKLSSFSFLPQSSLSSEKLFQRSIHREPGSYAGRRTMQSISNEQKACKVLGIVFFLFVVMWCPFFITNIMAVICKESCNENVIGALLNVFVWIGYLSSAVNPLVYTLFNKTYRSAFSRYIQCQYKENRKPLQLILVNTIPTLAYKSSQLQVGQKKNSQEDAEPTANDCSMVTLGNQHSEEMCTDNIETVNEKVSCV

COc1cc(CC(C)N)c(OC)cc1I (stereo not shown) [DOI, 2,5-dimethoxy-4-iodoamphetamine]
Ki ([1]; [3H]M100907 Binding ♀ m5-HT2A Ki, female mouse brain membranes): 11 nM | Ki ([1]; [3H]M100907 Binding ♂ m5-HT2A Ki, male mouse brain membranes): 13 nM | 5-HT2A binding affinity (Ki), males and females ([1]; male and female mouse brain membranes, summary statement): low nanomolar affinity | HTR (total events) Mean ([2]; 0.03 mg/kg s.c., female mice): 12.5 total events | HTR (total events) Mean ([2]; 0.03 mg/kg s.c., male mice): 8.8 total events | HTR (total events) Mean ([2]; 0.03 mg/kg s.c., pooled sexes): 10.7 total events | HTR (total events) Mean ([2]; 0.1 mg/kg s.c., female mice): 19.7 total events | HTR (total events) Mean ([2]; 0.1 mg/kg s.c., male mice): 22.4 total events | HTR (total events) Mean ([2]; 0.1 mg/kg s.c., pooled sexes): 20.8 total events | HTR (total events) Mean ([2]; 0.3 mg/kg s.c., female mice): 59.0 total events | HTR (total events) Mean ([2]; 0.3 mg/kg s.c., male mice): 57.3 total events | HTR (total events) Mean ([2]; 0.3 mg/kg s.c., pooled sexes): 58.2 total events | HTR (total events) Mean ([2]; 1 mg/kg s.c., female mice): 91.2 total events | HTR (total events) Mean ([2]; 1 mg/kg s.c., male mice): 89.7 total events | HTR (total events) Mean ([2]; 1 mg/kg s.c., pooled sexes): 90.4 total events | HTR (total events) Mean ([2]; 3 mg/kg s.c., female mice): 108.8 total events | HTR (total events) Mean ([2]; 3 mg/kg s.c., male mice): 106.8 total events | HTR (total events) Mean ([2]; 3 mg/kg s.c., pooled sexes): 107.8 total events | HTR (total events) Mean ([2]; 10 mg/kg s.c., female mice): 148.7 total events | HTR (total events) Mean ([2]; 10 mg/kg s.c., male mice): 103.3 total events | HTR (total events) Mean ([2]; 10 mg/kg s.c., pooled sexes): 126.0 total events | ED50 ([2]; female mice, ascending limb of dose-response curve, read-out: HTR ♀ ED50 (95% CI)): 0.52 mg/kg | ED50 ([2]; male mice, ascending limb of dose-response curve, read-out: HTR ♂ ED50 (95% CI)): 0.3 mg/kg | ED50 ([2]; pooled male and female mice, read-out: HTR ♂+♀ ED50 (95% CI)): 0.33 mg/kg | Duration of HTR effect in the session ([2]; peak/active doses, 30 min session): lasted throughout the entire 30 min session | Time of peak effects on HTR post drug administration ([2]; s.c., both sexes, 30 min session): 5 to 10 min | HTR ♀ Emax (95% CI) ([2]; s.c., female mice, top of regression fit): 131 (118–146) HTR events | HTR ♂ Emax (95% CI) ([2]; s.c., male mice, top of regression fit): 105 (93–118) HTR events | HTR ♂+♀ Emax (95% CI) ([2]; s.c., pooled male and female mice): 111 (101–127) HTR events | Locomotor Activity (cm) Mean ([3]; 0.03 mg/kg s.c., female mice): 2149 cm | Locomotor Activity (cm) Mean ([3]; 0.03 mg/kg s.c., male mice): 2753 cm | Locomotor Activity (cm) Mean ([3]; 0.03 mg/kg s.c., pooled sexes): 2408 cm | Locomotor Activity (cm) Mean ([3]; 0.1 mg/kg s.c., female mice): 2292 cm | Locomotor Activity (cm) Mean ([3]; 0.1 mg/kg s.c., male mice): 3045 cm | Locomotor Activity (cm) Mean ([3]; 0.1 mg/kg s.c., pooled sexes): 2606 cm | Locomotor activity effect ([3]; 1 mg/kg s.c.): marginal increase | Locomotor Activity (cm) Mean ([3]; 1 mg/kg s.c., female mice): 3246.7 cm | Locomotor Activity (cm) Mean ([3]; 1 mg/kg s.c., male mice): 4033.6 cm | Locomotor Activity (cm) Mean ([3]; 1 mg/kg s.c., pooled sexes): 3640 cm | Locomotor Activity (cm) Mean ([3]; 3 mg/kg s.c., female mice): 3192.6 cm | Locomotor Activity (cm) Mean ([3]; 3 mg/kg s.c., male mice): 3289.3 cm | Locomotor Activity (cm) Mean ([3]; 3 mg/kg s.c., pooled sexes): 3241 cm | Locomotor Activity (cm) Mean ([3]; 10 mg/kg s.c., female mice): 2459.7 cm | Locomotor Activity (cm) Mean ([3]; 10 mg/kg s.c., male mice): 2529.1 cm | Locomotor Activity (cm) Mean ([3]; 10 mg/kg s.c., pooled sexes): 2492 cm | Body Temp Δ (°C) Mean ([4]; 0.03 mg/kg s.c., female mice): 0.0 °C | Body Temp Δ (°C) Mean ([4]; 0.03 mg/kg s.c., male mice): 0.2 °C | Body Temp Δ (°C) Mean ([4]; 0.03 mg/kg s.c., pooled sexes): 0.1 °C | Body Temp Δ (°C) Mean ([4]; 0.1 mg/kg s.c., female mice): 0.2 °C | Body Temp Δ (°C) Mean ([4]; 0.1 mg/kg s.c., male mice): 0.3 °C | Body Temp Δ (°C) Mean ([4]; 0.1 mg/kg s.c., pooled sexes): -0.1 °C | Body Temp Δ (°C) Mean ([4]; 0.3 mg/kg s.c., female mice): 0.2 °C | Body Temp Δ (°C) Mean ([4]; 0.3 mg/kg s.c., male mice): 0.6 °C | Body Temp Δ (°C) Mean ([4]; 0.3 mg/kg s.c., pooled sexes): 0.2 °C | Body Temp Δ (°C) Mean ([4]; 1 mg/kg s.c., female mice): -0.3 °C | Body Temp Δ (°C) Mean ([4]; 1 mg/kg s.c., male mice): -0.1 °C | Body Temp Δ (°C) Mean ([4]; 1 mg/kg s.c., pooled sexes): 0.4 °C | Body Temp Δ (°C) Mean ([4]; 3 mg/kg s.c., female mice): -0.3 °C | Body Temp Δ (°C) Mean ([4]; 3 mg/kg s.c., male mice): -0.1 °C | Body Temp Δ (°C) Mean ([4]; 3 mg/kg s.c., pooled sexes): -0.2 °C | Body Temp Δ (°C) Mean ([4]; 10 mg/kg s.c., female mice): -0.4 °C | Body Temp Δ (°C) Mean ([4]; 10 mg/kg s.c., male mice): -0.9 °C | Body Temp Δ (°C) Mean ([4]; 10 mg/kg s.c., pooled sexes): -0.6 °C | Body temperature vs. vehicle controls ([4]; 0.03-10 mg/kg s.c., both sexes): did not change body temperature
